The pIC50 is the IC50 on a negative log10 scale, so that one unit is a factor of ten.

The values that follow come from PMC7150648 (ACS infectious diseases, 2020).

The target in data set [1] is T1, LasR (Pseudomonas aeruginosa, UniProt P25084). The conditions noted are these: P. aeruginosa LasR reporter; ref [30]; cited from earlier work.
Data set [2] addresses T1, LasR. As to conditions: result in words; ref Wu et al., FASEB J. 2016; cited from earlier work.
The target in data set [3] is T1, LasR. As to the kind of experiment: LasR antagonism, P. aeruginosa PAO-JP2 GFP reporter, in competition with OdDHL. It counts as cell-based.
The target in data set [4] is T1, LasR. The data set is described as follows: LasR agonism, P. aeruginosa PAO-JP2 GFP reporter, compound alone. It counts as cell-based. As to conditions: result in words.
Data set [5] addresses T1, LasR. The data set is described as follows: E. coli LasR β-galactosidase reporter, wild-type LasR. It counts as cell-based. As to conditions: result in words.
Another data set addresses RhlR (Pseudomonas aeruginosa, UniProt P54292). As to the kind of experiment: E. coli RhlR β-galactosidase reporter. It counts as cell-based. As to conditions: result in words.
The next data set has as its target QscR (Pseudomonas aeruginosa, UniProt G3XD77). It counts as cell-based. The conditions noted are these: E. coli reporter; result in words.
Data set [6] addresses T1, LasR. The conditions noted are these: 50 μM compound; 16 h protein production.
For a further data set, the target named is LasR Y56F mutant (Pseudomonas aeruginosa, UniProt P25084, Y56F). The data set is described as follows: E. coli LasR mutant reporter, Y56F. The conditions noted are these: result in words. It counts as cell-based.
A further data set concerns the target LasR W60F mutant (Pseudomonas aeruginosa, UniProt P25084, W60F). The data set is described as follows: E. coli LasR mutant reporter, W60F. The conditions noted are these: 100 μM vs OdDHL at its EC50; result in words. It counts as cell-based.
The target of a further data set is LasR S129A mutant (Pseudomonas aeruginosa, UniProt P25084, S129A). The data set is described as follows: E. coli LasR mutant reporter, S129A. The conditions noted are these: result in words. It counts as cell-based.
Another data set has as its system MexAB-OprM efflux pump. The conditions noted are these: P. aeruginosa; ref [16]; cited from earlier work.

pIC50: −log10 of the molar value. Entries after “also recorded” stand apart in the source; their conditions may differ. Where two headings read alike, the source gives them in different places.

As to `O=C(Cc1ccc(Br)cc1)N[C@H]1CCOC1=O` [4-bromo PHL], the pIC50 on LasR [1] is 3.94.
Turning to `CCCCC[C@H](O)/C=C/C=C\C=C\C=C\[C@@H](O)[C@@H](O)CCCC(=O)O` [Lipoxin A], the IC50 entry at LasR [2] is given as “nanomolar IC50”.
With `CCCCCCCCCNC(=O)CC(=O)c1ccccc1` [V-06–018, N-nonyl-3-oxo-3-phenylpropanamide], the pIC50 on LasR [3] is 5.41; on LasR [3] (PAO-JP2, vs 150 nM OdDHL (approximate EC50)) it was 5.64. Besides, the “LasR antagonism, primary screen” value at LasR [3] (PAO-JP2, compound 10 μM vs 150 nM OdDHL) is ~ 90%. Further, the “Maximum Inhibition” value at LasR [3] (PAO-JP2, vs 150 nM OdDHL, best-fit bottom of dose-response curve) is reported as 89%. At LasR [4], the “LasR activation in dose-response agonism curves” value is given as “did not activate LasR”. Also, on LasR [5], the “activity in LasR (antagonist in competition, agonist alone)” value is given as “only an antagonist of LasR; also recorded: does not agonize wild-type LasR”. For the same compound, the “activity in RhlR (antagonist or agonist)” value on RhlR is reported as “no activity (as either an antagonist or agonist)”. Also, on QscR, the “activity in QscR (antagonist or agonist)” value is recorded as “only a very weak antagonist; also recorded: only a weak QscR antagonist”. The “soluble (S) LasR band intensity relative to whole cell (WC) band” value at LasR [6] is given as ~ 7%. On LasR Y56F mutant (100 μM vs OdDHL at its EC50), the “LasR Y56F antagonism compared with wild-type LasR” value was “significantly lesser extent than wild-type LasR”. The “LasR Y56F agonism compared with wild-type LasR” value on LasR Y56F mutant (100 μM) was “significantly greater extent than wild-type LasR”. Moreover, the “LasR W60F antagonism compared with wild-type LasR” value on LasR W60F mutant is “significantly lesser extent than wild-type LasR”. The “LasR S129A antagonism compared with wild-type LasR” value on LasR S129A mutant (100 μM vs OdDHL at its EC50) is on record as “significantly lesser extent than wild-type LasR”. The “LasR S129A agonism compared with wild-type LasR” value on LasR S129A mutant (100 μM) is “significantly more than wild-type LasR”. In the data set with MexAB-OprM efflux pump, the “active efflux by MexAB-OprM” value is “not actively effluxed”.
